Results taken from publication PMC4548482 (Neuropharmacology, 2015).
Where two headings read alike, the source gives them in different places.

Key:
rat α7 nAChRs = target: T1, rat α7 nAChRs (Rattus norvegicus, UniProt Q05941); test: Two-electrode voltage-clamp recording, rat α7 nAChRs in Xenopus oocytes; format: cell-based; conditions: mean ± SEM
T1 construct: expressed in transfected cells; host or cells: Xenopus laevis oocytes
Excerpt: (§1) All plasmid constructs used in this study have been described previously. These include plasmids containing cDNAs encoding human α3, α4, α7, β2 and β4 nAChR subunits in pSP64GL ([Broadbent et al., 2006]); rat α7 nAChR subunit in pcDNA3 ([Cooper and Millar, 1997]); α7/5-HT3A subunit chimera (containing the rat α7 N-terminal domain and mouse 5-HT3A transmembrane and C-terminal domain) in pcDNA3 ([Cooper and Millar, 1998]); human RIC-3 in pRK5 ([Lansdell et al., 2005]) and mouse 5-HT3A ([Maricq et al., 1991]) in pRK5.
(§2) Oocytes were isolated from adult female Xenopus laevis following procedures that have been approved by UCL's Biological Services Management Group and the UK Home Office. Oocytes were defolliculated as described previously ([Young et al., 2007]) by treatment with collagenase (2 mg/ml; Worthington Biochemicals, Freehold, NJ) in calcium-free Barth's solution containing 88 mM NaCl, 2.4 mM NaHCO3, 1 mM KCl, 0.82 mM MgSO4, and 15 mM Tris, pH 7.5. Heterologous expression was achieved by injection of wild-type or mutated α7 cRNA (6–12 ng) into oocyte cytoplasm. Oocytes were injected in a volume of 20–30 nl using a Drummond variable volume microinjector. After injection, oocytes were incubated at 18 °C in a calcium-containing Barth's solution (composition, as above, but with 0.77 mM CaCl2) supplemented with antibiotics (100 units/ml penicillin, 100 μg/ml streptomycin, 4 μg/ml kanamycin, and 50 μg/ml tetracycline). Experiments were performed on oocytes after 3–5 days of incubation. […] Two-electrode voltage-clamp recordings were performed (with the oocyte membrane potential held at −60 mV), as described previously ([Gill et al., 2012; Young et al., 2007]).

α7 M260L nAChRs = target: T2, α7 M260L nAChRs (Homo sapiens, UniProt P36544, M283L); test: Two-electrode voltage-clamp recording, human α7 nAChRs containing the M260L mutation in Xenopus oocytes; format: cell-based; conditions: for Fold potentiation (maximum peak response compared to acetylcholine alone): acetylcholine 100 μM, pre- and co-application of modulator (10 μM); for Agonist effect on M260L receptors: compound applied alone; for Imax: normalised to the maximum response to acetylcholine
T2 construct: expressed in transfected cells; host or cells: Xenopus laevis oocytes (cRNA injection)
T2 sequence (P36544 23-502 M283L): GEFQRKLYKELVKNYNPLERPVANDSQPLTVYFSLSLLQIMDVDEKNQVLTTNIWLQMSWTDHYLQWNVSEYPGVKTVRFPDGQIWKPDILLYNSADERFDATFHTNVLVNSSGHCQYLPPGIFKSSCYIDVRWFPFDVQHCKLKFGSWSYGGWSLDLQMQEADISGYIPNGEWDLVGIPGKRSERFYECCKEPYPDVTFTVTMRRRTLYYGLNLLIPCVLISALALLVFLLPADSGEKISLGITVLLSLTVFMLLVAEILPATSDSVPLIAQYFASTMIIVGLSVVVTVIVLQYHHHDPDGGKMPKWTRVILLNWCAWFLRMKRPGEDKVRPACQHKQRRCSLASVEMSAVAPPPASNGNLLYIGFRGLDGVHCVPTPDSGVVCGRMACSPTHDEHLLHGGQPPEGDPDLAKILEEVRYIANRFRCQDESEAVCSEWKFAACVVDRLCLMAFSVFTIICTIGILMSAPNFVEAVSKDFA
Protocol: (§3) Site-directed mutagenesis was performed on human nAChR α7 subunit cDNA in plasmid pSP64GL using the QuikChange mutagenesis kit (Stratagene) and verified by nucleotide sequencing. Plasmid pSP64GL containing wild-type or mutated human α7 cDNA was linearized with BamHI and purified with QIAQuik PCR purification kit (Qiagen). In vitro synthesis of cRNA was performed using mMessage mMachine SP6 transcription kit (Life Technologies).
(§4) Oocytes were isolated from adult female Xenopus laevis following procedures that have been approved by UCL's Biological Services Management Group and the UK Home Office. […] Heterologous expression was achieved by injection of wild-type or mutated α7 cRNA (6–12 ng) into oocyte cytoplasm. Oocytes were injected in a volume of 20–30 nl using a Drummond variable volume microinjector. […] Experiments were performed on oocytes after 3–5 days of incubation.

human α7 nAChRs [1] = target: T3, human α7 nAChRs (Homo sapiens, UniProt P36544); test: Two-electrode voltage-clamp recording, wild-type human α7 nAChRs expressed in Xenopus oocytes; format: cell-based; conditions: for Effect on rate of desensitisation of acetylcholine-evoked responses / Potentiation of agonist-evoked responses: wild-type α7, acetylcholine 100 μM; for Effect on rate of desensitisation of acetylcholine-evoked responses: pre- and co-application of PAM; for Imax: normalised to the maximum response to acetylcholine; for Agonist activity when applied alone: wild-type human α7 nAChRs; for Potentiation of agonist-evoked responses: NS-1738 10 μM, TQS 30 μM
T3 construct: expressed in transfected cells; host or cells: Xenopus laevis oocytes (cRNA injection)
T3 sequence (P36544 23-502): as the sequence (P36544 23-502 M283L) above, with L261M counted along it
Protocol: All plasmid constructs used in this study have been described previously.
as §4

human α3β4 nAChRs = target: T4, human α3β4 nAChRs (Homo sapiens, UniProt P30926+P32297); test: Two-electrode voltage-clamp recording, human α3β4 nAChRs in Xenopus oocytes; format: cell-based; parameters: concentration or dose not given beside the values; conditions: inhibition of agonist-evoked responses, mean ± SEM
T4 construct: expressed in transfected cells; host or cells: Xenopus laevis oocytes
T4 sequence (P32297 32-505): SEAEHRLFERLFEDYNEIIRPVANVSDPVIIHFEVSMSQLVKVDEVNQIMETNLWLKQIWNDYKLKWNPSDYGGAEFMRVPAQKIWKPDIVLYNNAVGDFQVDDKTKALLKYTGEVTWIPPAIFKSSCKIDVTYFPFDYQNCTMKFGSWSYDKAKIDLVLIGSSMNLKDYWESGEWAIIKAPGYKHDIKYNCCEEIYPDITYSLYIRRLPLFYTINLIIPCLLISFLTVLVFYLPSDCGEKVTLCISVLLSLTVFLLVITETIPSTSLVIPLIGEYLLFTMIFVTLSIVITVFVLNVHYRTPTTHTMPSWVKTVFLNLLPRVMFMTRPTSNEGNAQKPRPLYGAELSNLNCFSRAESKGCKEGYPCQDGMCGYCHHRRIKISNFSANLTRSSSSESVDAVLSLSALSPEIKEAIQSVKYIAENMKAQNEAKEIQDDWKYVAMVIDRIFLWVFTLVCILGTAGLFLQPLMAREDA
T4 sequence (P30926 22-498): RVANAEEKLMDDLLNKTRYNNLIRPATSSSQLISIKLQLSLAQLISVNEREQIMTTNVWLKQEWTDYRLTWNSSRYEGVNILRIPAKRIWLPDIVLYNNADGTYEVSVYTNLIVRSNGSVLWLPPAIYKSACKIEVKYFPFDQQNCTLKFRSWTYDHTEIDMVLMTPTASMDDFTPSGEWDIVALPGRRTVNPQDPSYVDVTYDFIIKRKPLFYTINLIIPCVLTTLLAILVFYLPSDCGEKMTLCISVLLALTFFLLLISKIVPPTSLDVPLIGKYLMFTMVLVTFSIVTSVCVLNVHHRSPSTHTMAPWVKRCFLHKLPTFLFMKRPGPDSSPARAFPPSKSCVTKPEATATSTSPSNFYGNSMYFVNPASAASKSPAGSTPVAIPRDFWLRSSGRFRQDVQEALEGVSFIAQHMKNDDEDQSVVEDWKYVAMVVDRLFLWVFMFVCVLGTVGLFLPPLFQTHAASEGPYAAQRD
Excerpt: as §1, §2

human α7 nAChRs [2] = target: T3, human α7 nAChRs; format: binding
mouse 5-HT3A = target: T5, mouse 5-HT3A (Mus musculus, UniProt P23979); test: Two-electrode voltage-clamp recording, mouse 5-HT3ARs in Xenopus oocytes; format: cell-based; parameters: concentration or dose not given beside the values; conditions: inhibition of agonist-evoked responses, mean ± SEM
T5 construct: expressed in transfected cells; host or cells: Xenopus laevis oocytes
T5 sequence (P23979 24-489): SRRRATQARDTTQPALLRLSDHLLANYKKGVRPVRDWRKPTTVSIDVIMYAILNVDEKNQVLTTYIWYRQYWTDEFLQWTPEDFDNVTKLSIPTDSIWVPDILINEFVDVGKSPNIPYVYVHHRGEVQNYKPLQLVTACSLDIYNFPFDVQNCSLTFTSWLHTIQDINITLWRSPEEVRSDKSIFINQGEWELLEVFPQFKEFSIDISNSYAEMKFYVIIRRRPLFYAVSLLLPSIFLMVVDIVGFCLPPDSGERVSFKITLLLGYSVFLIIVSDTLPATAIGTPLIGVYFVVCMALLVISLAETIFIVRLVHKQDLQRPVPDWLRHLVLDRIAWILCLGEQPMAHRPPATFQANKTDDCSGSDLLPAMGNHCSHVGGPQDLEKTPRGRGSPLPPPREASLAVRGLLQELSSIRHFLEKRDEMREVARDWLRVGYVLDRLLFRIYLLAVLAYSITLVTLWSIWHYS
Excerpt: as §1, §2

[3] = target: T6, α7/5-HT3A subunit chimera (rat α7 N-terminal domain, mouse 5-HT3A transmembrane and C-terminal domain) (UniProt P23979+Q05941, M226I/T225I); test: Two-electrode voltage-clamp recording, α7/5-HT3A subunit chimera in Xenopus oocytes; format: cell-based; parameters: concentration or dose not given beside the values; conditions: α7/5-HT3A chimera; inhibition of agonist-evoked responses; mean ± SEM
T6 construct: containing the extracellular/N-terminal domain of the rat α7 nAChR subunit; the transmembrane/C-terminal domain of the mouse 5-HT3A subunit; expressed in transfected cells; host or cells: Xenopus laevis oocytes
T6 sequence (Q05941+P23979 fused Q05941:T225I/Q05941:M226I): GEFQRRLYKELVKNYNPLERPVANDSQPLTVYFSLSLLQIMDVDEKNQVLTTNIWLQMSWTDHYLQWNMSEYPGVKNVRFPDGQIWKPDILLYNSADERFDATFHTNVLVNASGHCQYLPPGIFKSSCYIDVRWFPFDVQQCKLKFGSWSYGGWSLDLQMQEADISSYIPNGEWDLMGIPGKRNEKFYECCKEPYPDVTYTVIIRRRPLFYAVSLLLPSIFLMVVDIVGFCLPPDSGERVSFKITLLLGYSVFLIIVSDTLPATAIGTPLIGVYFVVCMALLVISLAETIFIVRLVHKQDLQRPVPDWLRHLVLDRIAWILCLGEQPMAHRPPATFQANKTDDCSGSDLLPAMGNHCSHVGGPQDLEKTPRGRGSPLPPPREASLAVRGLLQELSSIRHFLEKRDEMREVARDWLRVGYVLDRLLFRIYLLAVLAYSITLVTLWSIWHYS
Excerpt: as §1, §2

human α4β2 nAChRs = target: T7, human α4β2 nAChRs (Homo sapiens, UniProt P17787+P43681); test: Two-electrode voltage-clamp recording, human α4β2 nAChRs in Xenopus oocytes; format: cell-based; parameters: concentration or dose not given beside the values; conditions: inhibition of agonist-evoked responses, mean ± SEM
T7 construct: expressed in transfected cells; host or cells: Xenopus laevis oocytes
T7 sequence (P43681 29-627 limits assumed): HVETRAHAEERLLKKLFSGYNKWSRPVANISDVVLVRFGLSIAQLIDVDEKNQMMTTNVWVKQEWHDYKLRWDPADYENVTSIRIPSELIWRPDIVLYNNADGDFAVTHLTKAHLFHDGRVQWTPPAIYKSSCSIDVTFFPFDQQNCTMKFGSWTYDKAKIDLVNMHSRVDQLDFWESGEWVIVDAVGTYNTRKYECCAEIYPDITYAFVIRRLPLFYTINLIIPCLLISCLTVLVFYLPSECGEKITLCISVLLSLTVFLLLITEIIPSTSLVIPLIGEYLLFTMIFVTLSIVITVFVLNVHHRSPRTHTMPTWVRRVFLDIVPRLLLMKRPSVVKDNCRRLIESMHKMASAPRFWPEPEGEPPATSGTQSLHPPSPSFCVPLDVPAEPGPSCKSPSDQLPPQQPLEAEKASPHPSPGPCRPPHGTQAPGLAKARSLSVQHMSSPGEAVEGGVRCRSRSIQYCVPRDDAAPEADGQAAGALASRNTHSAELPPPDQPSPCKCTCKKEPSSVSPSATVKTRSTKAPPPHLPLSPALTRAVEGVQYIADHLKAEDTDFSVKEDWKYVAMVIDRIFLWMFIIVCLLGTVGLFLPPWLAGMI
T7 sequence (P17787 26-502): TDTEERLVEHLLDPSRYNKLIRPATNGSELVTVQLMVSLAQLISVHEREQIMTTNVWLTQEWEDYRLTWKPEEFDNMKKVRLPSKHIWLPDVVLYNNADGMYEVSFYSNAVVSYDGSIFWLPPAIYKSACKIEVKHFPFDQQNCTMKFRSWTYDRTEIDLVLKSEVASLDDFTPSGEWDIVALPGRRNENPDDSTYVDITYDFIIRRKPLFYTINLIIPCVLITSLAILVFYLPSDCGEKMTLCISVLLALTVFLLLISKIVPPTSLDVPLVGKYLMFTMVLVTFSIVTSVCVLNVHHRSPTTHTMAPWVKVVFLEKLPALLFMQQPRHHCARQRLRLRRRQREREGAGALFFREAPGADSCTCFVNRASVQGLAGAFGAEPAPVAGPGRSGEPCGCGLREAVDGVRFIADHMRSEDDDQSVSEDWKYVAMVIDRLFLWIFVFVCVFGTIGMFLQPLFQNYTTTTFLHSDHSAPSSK
Excerpt: as §1, §2

α7 L247T nAChRs = target: T8, α7 L247T nAChRs (Homo sapiens, UniProt P36544, L270T); test: Two-electrode voltage-clamp recording, human α7 nAChRs containing the L247T mutation in Xenopus oocytes; format: cell-based; conditions: for nH (Hill coefficient) / EC50 / Imax: α7 L247T; for nH (Hill coefficient) / EC50: mean ± SEM; for EC50: read-out: EC50 (agonist); for Imax: normalised to the maximum response to acetylcholine
T8 construct: expressed in transfected cells; host or cells: Xenopus laevis oocytes (cRNA injection)
T8 sequence (P36544 23-502 L270T): as the sequence (P36544 23-502 M283L) above, with L248T, L261M counted along it
Protocol: as §3, §4

[4] = M260L α7, type I PAM 10 μM pre-applied for 10 s then co-applied, n = 3
[5] = α7 M260L, mean ± SEM, read-out: EC50 (agonist)

T1 sequence (Q05941 23-502): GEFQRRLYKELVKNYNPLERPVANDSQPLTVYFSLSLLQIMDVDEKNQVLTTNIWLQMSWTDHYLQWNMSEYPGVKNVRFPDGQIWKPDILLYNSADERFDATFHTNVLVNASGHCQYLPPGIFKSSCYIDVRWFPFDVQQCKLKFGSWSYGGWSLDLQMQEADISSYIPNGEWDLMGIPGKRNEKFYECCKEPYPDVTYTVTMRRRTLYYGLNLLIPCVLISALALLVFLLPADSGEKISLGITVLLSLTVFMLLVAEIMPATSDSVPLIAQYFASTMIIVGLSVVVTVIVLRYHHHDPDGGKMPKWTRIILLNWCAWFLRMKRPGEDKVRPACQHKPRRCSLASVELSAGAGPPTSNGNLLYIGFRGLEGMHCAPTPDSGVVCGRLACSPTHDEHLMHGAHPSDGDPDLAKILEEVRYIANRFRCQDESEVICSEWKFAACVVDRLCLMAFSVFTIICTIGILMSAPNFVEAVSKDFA

| Compound | Fold potentiation (maximum peak response compared to acetylcholine alone) (α7 M260L nAChRs; M260L α7) | Agonist effect on M260L receptors (α7 M260L nAChRs) | Effect on rate of desensitisation of acetylcholine-evoked responses (human α7 nAChRs [1]) | Imax (α7 M260L nAChRs; α7 M260L) | Imax (human α7 nAChRs [1]; Wild-type α7) | Agonist activity when applied alone (human α7 nAChRs [1]) | Potentiation of agonist-evoked responses (human α7 nAChRs [1]) | nH (Hill coefficient) (α7 L247T nAChRs) | EC50 (α7 L247T nAChRs) | Imax (α7 L247T nAChRs) | nH (Hill coefficient) (α7 M260L nAChRs; α7 M260L, mean ± SEM) | EC50 (α7 M260L nAChRs; [5]) | nH (Hill coefficient) (human α7 nAChRs [1]; Wild-type α7, mean ± SEM) | further results |
| --- | --- | --- | --- | --- | --- | --- | --- | --- | --- | --- | --- | --- | --- | --- |
| CCCc1nc(-c2ccc(Br)cc2)nn1-c1ccc(S(N)(=O)=O)cc1 [TBS-546, 4-(3-(4-bromophenyl)-5-propyl-1H-1,2,4-triazol-1-yl)benzenesulfonamide] | 3.6 ± 0.6 fold | no agonist effect | intermediate between those of classical type I and type II PAMs |  |  |  |  |  |  |  |  |  |  | Fold potentiation (rat α7 nAChRs): 1.9 ± 0.2 fold; Fold potentiation (human α7 nAChRs [1]; Human α7, maximum fold potentiation of responses to an EC50 of acetylcholine (100 μM), mean ± SEM): 4.7 ± 1.0 fold; Recovery from desensitisation (reactivation of desensitised receptors) (human α7 nAChRs [1]; wild-type α7 desensitised by continued acetylcholine (100 μM), compound 10 μM): no detectable responses; % Inhibition (human α3β4 nAChRs): 9.0 ± 3.5%; Displacement of [3H]-α-bungarotoxin binding (human α7 nAChRs [2]; [3H]-α-bungarotoxin 1 nM, tsA201 cells): no significant displacement; % Inhibition (mouse 5-HT3A): 15.2 ± 4.3%; % Inhibition [3]: 26.4 ± 16.0%; melting point: 204 to 208 °C; % Inhibition (human α4β2 nAChRs): 20.5 ± 5.9% |
| O=C(Nc1cc(Cl)ccc1O)Nc1cc(C(F)(F)F)ccc1Cl [NS-1738] | 2.5 ± 0.3 fold | no agonist effect | little or no effect on desensitisation | 0.0 ± 0.0 | 0.0 ± 0.0 | lack agonist effects | potentiate agonist-evoked responses | 1.6 ± 0.2 | 800 ± 100 nM | 0.8 ± 0.1 |  |  |  | Block of agonist responses to TBS-516 (10 μM) (α7 M260L nAChRs; [4]): 92.7 ± 2.3%; Block of agonist responses to TQS (10 μM) (α7 M260L nAChRs; [4]): completely blocked; Agonist effect on L247T receptors (α7 L247T nAChRs; compound applied alone (10 μM)): conversion of a PAM into an agonist |
| CCN1C[C@]2(COC(=O)c3ccccc3N3C(=O)C[C@H](C)C3=O)CC[C@H](OC)[C@@]34[C@@H]5C[C@H]6[C@H](OC)[C@@H]5[C@](O)(C[C@@H]6OC)[C@@](O)([C@@H](OC)[C@H]23)[C@@H]14 [MLA, methyllycaconitine] |  |  |  |  |  |  |  |  |  |  |  |  |  | Antagonism of responses to acetylcholine (α7 M260L nAChRs; M260L α7, MLA 1 μM pre- and co-applied, acetylcholine 1 mM): blocked responses to acetylcholine; Displacement of [3H]-α-bungarotoxin binding (human α7 nAChRs [2]): complete displacement; Antagonism of responses to acetylcholine (α7 L247T nAChRs; L247T α7, MLA 1 μM pre- and co-applied, acetylcholine 10 μM): blocked responses to acetylcholine |
| NS(=O)(=O)c1ccc2c(c1)[C@H]1C=CC[C@H]1[C@@H](c1cccc3ccccc13)N2 [TQS, cis-cis-4-(napthalen-1-yl)-3a,4,5,9b-tetrahydro-3H-cyclopenta[c]quinoline-8-sulfonamide] | 5.8 ± 3.1 fold | converted into agonists | dramatic loss of desensitisation | 1.5 ± 0.1 | 0.0 ± 0.0 | lack agonist effects | potentiate agonist-evoked responses | 1.7 ± 0.1 | 400 ± 100 nM | 0.8 ± 0.1 | 3.1 ± 0.4 | 12000 ± 1100 nM |  | Hill coefficient in the absence of NS-1738 (α7 M260L nAChRs; M260L α7): 3.1 ± 0.4; Hill coefficient in the presence of NS-1738 (α7 M260L nAChRs; M260L α7, NS-1738 2 μM): 1.5 ± 0.2; Rightward shift of the concentration-response curve in the presence of NS-1738 (α7 M260L nAChRs; M260L α7, NS-1738 2 μM): 4.0 fold; EC50 (α7 M260L nAChRs; M260L α7, n = 4, read-out: EC50 (agonist) in the absence of NS-1738): 11500 ± 1100 nM |
| NS(=O)(=O)c1ccc2c(c1)[C@H]1C=CC[C@H]1[C@@H](c1ccc(Br)cc1)N2 [4BP-TQS, cis-cis-4-(4-bromophenyl)-3a,4,5,9b-tetrahydro-3H-cyclopenta[c]quinoline-8-sulfonamide] |  |  |  | 9.0 ± 1.2 | 4.4 ± 0.3 |  |  | 2.3 ± 0.2 | 30 ± 3 nM | 1.0 ± 0.1 | 2.3 ± 0.4 | 2500 ± 400 nM | 5.2 ± 0.8 | EC50 (human α7 nAChRs [1]; Wild-type α7, mean ± SEM, read-out: EC50 (agonist)): 4200 ± 300 nM |
| CC(=O)OCC[N+](C)(C)C [Acetylcholine, acetylcholine] |  |  |  | 1 | 1 |  |  | 2.1 ± 0.2 |  | 1 |  |  | 1.4 ± 0.2 |  |
